# From PubChem BioAssay (NCI)
#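 The compound was tested at five concentrations on cells cultured in 96-well plates, with a 48-hour exposure period. Abbreviation: GI50, concentration required for 50% inhibition of growth. TGI is the concentration that stops growth completely.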
# Columns and labels:
# Assay in all cases: inhibition of tumour cell growth, NCI panel, 48 h
# [1] = test system: 786-0 renal
# [2] = test system: A498 renal
# [3] = test system: A549 NSCLC
# [4] = test system: ACHN renal
# [5] = test system: BT-549 breast
# [6] = test system: CAKI-1 renal
# [7] = test system: CCRF-CEM leukemia
# [8] = test system: COLO 205 colon
# [9] = test system: DU-145 prostate
# [10] = test system: EKVX NSCLC
# [11] = test system: HCC-2998 colon
# [12] = test system: HCT-15 colon
# [13] = test system: HL-60(TB) leukemia
# [14] = test system: HOP-62 NSCLC
# [15] = test system: HOP-92 NSCLC
# [16] = test system: HS 578T breast
# [17] = test system: HT29 colon
# [18] = test system: IGROV1 ovarian
# [19] = test system: KM12 colon
# [20] = test system: LOX IMVI melanoma
# [21] = test system: M14 melanoma
# [22] = test system: MALME-3M melanoma
# [23] = test system: MCF7 breast
# [24] = test system: MDA-MB-231 breast
# [25] = test system: MOLT-4 leukemia
# [26] = test system: NCI-H226 lung
# [27] = test system: NCI-H23 lung
# [28] = test system: NCI-H460 lung
# [29] = test system: NCI/ADR-RES ovarian
# [30] = test system: OVCAR-3 ovarian
# [31] = test system: OVCAR-4 ovarian
# [32] = test system: OVCAR-5 ovarian
# [33] = test system: OVCAR-8 ovarian
# [34] = test system: PC-3 prostate
# [35] = test system: RPMI-8226 leukemia
# [36] = test system: RXF 393 renal
# [37] = test system: SF-268 CNS
# [38] = test system: SF-295 CNS
# [39] = test system: SF-539 CNS
# [40] = test system: SK-MEL-2 melanoma
# [41] = test system: SK-MEL-28 melanoma
# [42] = test system: SN12C renal
# [43] = test system: SNB-19 CNS
# [44] = test system: SNB-75 CNS
# [45] = test system: SW-620 colon
# [46] = test system: T-47D breast
# [47] = test system: TK-10 renal
# [48] = test system: UACC-257 melanoma
# [49] = test system: UACC-62 melanoma
# [50] = test system: UO-31 renal
# [51] = test system: HCT-116 colon
# [52] = test system: K-562 leukemia
# [53] = test system: MDA-MB-435
# [54] = test system: NCI-H522 lung
# [55] = test system: SK-MEL-5 melanoma
# [56] = test system: SK-OV-3 ovarian
# [57] = test system: SR leukemia
# [58] = test system: U251 CNS
structure (smiles),measurement,setting,value
COc1ccc2c(c1)oc1c(C)c3c(c(C)c12)C(=O)N(N)C3=O,GI50,[1],22.7 µM
same,TGI,[1],> 100 µM
same,GI50,[2],4.25 µM
same,TGI,[2],> 100 µM
same,GI50,[3],> 100 µM
same,TGI,[3],> 100 µM
same,GI50,[4],7.53 µM
same,TGI,[4],> 100 µM
same,GI50,[5],5.2 µM
same,TGI,[5],> 100 µM
same,GI50,[6],> 100 µM
same,TGI,[6],> 100 µM
same,GI50,[7],> 100 µM
same,TGI,[7],> 100 µM
same,GI50,[8],> 100 µM
same,TGI,[8],> 100 µM
same,GI50,[9],> 100 µM
same,TGI,[9],> 100 µM
same,GI50,[10],> 100 µM
same,TGI,[10],> 100 µM
same,GI50,[11],> 100 µM
same,TGI,[11],> 100 µM
same,GI50,[12],> 100 µM
same,TGI,[12],> 100 µM
same,GI50,[13],> 100 µM
same,TGI,[13],> 100 µM
same,GI50,[14],25 µM
same,TGI,[14],> 100 µM
same,GI50,[15],> 100 µM
same,TGI,[15],> 100 µM
same,GI50,[16],32.6 µM
same,TGI,[16],> 100 µM
same,GI50,[17],> 100 µM
same,TGI,[17],> 100 µM
same,GI50,[18],> 100 µM
same,TGI,[18],> 100 µM
same,GI50,[19],> 100 µM
same,TGI,[19],> 100 µM
same,GI50,[20],> 100 µM
same,TGI,[20],> 100 µM
same,GI50,[21],> 100 µM
same,TGI,[21],> 100 µM
same,GI50,[22],> 100 µM
same,TGI,[22],> 100 µM
same,GI50,[23],50.7 µM
same,TGI,[23],> 100 µM
same,GI50,[24],61.9 µM
same,TGI,[24],> 100 µM
same,GI50,[25],23.4 µM
same,TGI,[25],> 100 µM
same,GI50,[26],40.4 µM
same,TGI,[26],> 100 µM
same,GI50,[27],> 100 µM
same,TGI,[27],> 100 µM
same,GI50,[28],3.49 µM
same,TGI,[28],> 100 µM
same,GI50,[29],> 100 µM
same,TGI,[29],> 100 µM
same,GI50,[30],> 100 µM
same,TGI,[30],> 100 µM
same,GI50,[31],> 100 µM
same,TGI,[31],> 100 µM
same,GI50,[32],> 100 µM
same,TGI,[32],> 100 µM
same,GI50,[33],7.89 µM
same,TGI,[33],> 100 µM
same,GI50,[34],> 100 µM
same,TGI,[34],> 100 µM
same,GI50,[35],> 100 µM
same,TGI,[35],> 100 µM
same,GI50,[36],8.21 µM
same,TGI,[36],> 100 µM
same,GI50,[37],21.9 µM
same,TGI,[37],> 100 µM
same,GI50,[38],> 100 µM
same,TGI,[38],> 100 µM
same,GI50,[39],78.8 µM
same,TGI,[39],> 100 µM
same,GI50,[40],> 100 µM
same,TGI,[40],> 100 µM
same,GI50,[41],> 100 µM
same,TGI,[41],> 100 µM
same,GI50,[42],> 100 µM
same,TGI,[42],> 100 µM
same,GI50,[43],> 100 µM
same,TGI,[43],> 100 µM
same,GI50,[44],4.37 µM
same,TGI,[44],> 100 µM
same,GI50,[45],> 100 µM
same,TGI,[45],> 100 µM
same,GI50,[46],> 100 µM
same,TGI,[46],> 100 µM
same,GI50,[47],> 100 µM
same,TGI,[47],> 100 µM
same,GI50,[48],> 100 µM
same,TGI,[48],> 100 µM
same,GI50,[49],> 100 µM
same,TGI,[49],> 100 µM
same,GI50,[50],> 100 µM
same,TGI,[50],> 100 µM
O=C1c2ccccc2C(=O)c2c1c(=O)c(=O)c1ccccc1c(=O)n2Cc1ccccc1,GI50,[1],> 100 µM
same,TGI,[1],> 100 µM
same,GI50,[2],> 100 µM
same,TGI,[2],> 100 µM
same,GI50,[3],47.2 µM
same,TGI,[3],> 100 µM
same,GI50,[4],> 100 µM
same,TGI,[4],> 100 µM
same,GI50,[5],> 100 µM
same,TGI,[5],> 100 µM
same,GI50,[6],> 100 µM
same,TGI,[6],> 100 µM
same,GI50,[7],7.67 µM
same,TGI,[7],> 100 µM
same,GI50,[8],> 100 µM
same,TGI,[8],> 100 µM
same,GI50,[9],47.9 µM
same,TGI,[9],> 100 µM
same,GI50,[10],> 100 µM
same,TGI,[10],> 100 µM
same,GI50,[11],84.2 µM
same,TGI,[11],> 100 µM
same,GI50,[51],> 100 µM
same,TGI,[51],> 100 µM
same,GI50,[12],> 100 µM
same,TGI,[12],> 100 µM
same,GI50,[13],41.8 µM
same,TGI,[13],> 100 µM
same,GI50,[14],> 100 µM
same,TGI,[14],> 100 µM
same,GI50,[16],> 100 µM
same,TGI,[16],> 100 µM
same,GI50,[17],> 100 µM
same,TGI,[17],> 100 µM
same,GI50,[18],79.2 µM
same,TGI,[18],> 100 µM
same,GI50,[52],53.7 µM
same,TGI,[52],> 100 µM
same,GI50,[19],81.9 µM
same,TGI,[19],> 100 µM
same,GI50,[20],92.9 µM
same,TGI,[20],> 100 µM
same,GI50,[21],36.6 µM
same,TGI,[21],> 100 µM
same,GI50,[22],28.6 µM
same,TGI,[22],80.1 µM
same,GI50,[23],79.1 µM
same,TGI,[23],> 100 µM
same,GI50,[24],> 100 µM
same,TGI,[24],> 100 µM
same,GI50,[53],> 100 µM
same,TGI,[53],> 100 µM
same,GI50,[25],38.2 µM
same,TGI,[25],> 100 µM
same,GI50,[26],> 100 µM
same,TGI,[26],> 100 µM
same,GI50,[27],8.51 µM
same,TGI,[27],> 100 µM
same,GI50,[28],50.7 µM
same,TGI,[28],> 100 µM
same,GI50,[54],> 100 µM
same,TGI,[54],> 100 µM
same,GI50,[29],> 100 µM
same,TGI,[29],> 100 µM
same,GI50,[30],88.8 µM
same,TGI,[30],> 100 µM
same,GI50,[31],> 100 µM
same,TGI,[31],> 100 µM
same,GI50,[32],> 100 µM
same,TGI,[32],> 100 µM
same,GI50,[33],> 100 µM
same,TGI,[33],> 100 µM
same,GI50,[34],> 100 µM
same,TGI,[34],> 100 µM
same,GI50,[35],28.5 µM
same,TGI,[35],85.2 µM
same,GI50,[36],> 100 µM
same,TGI,[36],> 100 µM
same,GI50,[37],> 100 µM
same,TGI,[37],> 100 µM
same,GI50,[38],53.1 µM
same,TGI,[38],> 100 µM
same,GI50,[39],> 100 µM
same,TGI,[39],> 100 µM
same,GI50,[40],> 100 µM
same,TGI,[40],> 100 µM
same,GI50,[41],> 100 µM
same,TGI,[41],> 100 µM
same,GI50,[55],15.8 µM
same,TGI,[55],47.2 µM
same,GI50,[56],> 100 µM
same,TGI,[56],> 100 µM
same,GI50,[42],> 100 µM
same,TGI,[42],> 100 µM
same,GI50,[43],> 100 µM
same,TGI,[43],> 100 µM
same,GI50,[44],> 100 µM
same,TGI,[44],> 100 µM
same,GI50,[57],29 µM
same,TGI,[57],> 100 µM
same,GI50,[45],> 100 µM
same,TGI,[45],> 100 µM
same,GI50,[47],> 100 µM
same,TGI,[47],> 100 µM
same,GI50,[58],> 100 µM
same,TGI,[58],> 100 µM
same,GI50,[48],> 100 µM
same,TGI,[48],> 100 µM
same,GI50,[49],66.3 µM
same,TGI,[49],> 100 µM
same,GI50,[50],> 100 µM
same,TGI,[50],> 100 µM
